The values that follow come from patent US20250213654A1, “PEPTIDES AND METHODS FOR USE IN TREATING PAIN” (TAFALGIE THERAPEUTICS, priority 2022, published 2025).

In assay [1] the test system is Spared Nerve Injury (SNI) model of neuropathic pain. Description: Spared Nerve Injury (SNI) model of neuropathic pain, Von Frey up-down mechanical threshold. It is filed as in vivo, mice. The settings on record: SNI day 14, per os, 30 μg/mL solution in HPMC vehicle; peptides significant as soon as 1 hour (p value<0.01).
The test system of assay [2] is injury-induced mechanical hypersensitivity. The settings on record: cited from earlier work.
Assay [3] concerns spinal lamina II interneurons. The settings on record: spinal lamina II interneurons (WO2014180853); cited from earlier work.

As for “TAFA4 FL: human TAFA-4 full length mature protein (SEQ ID NO: 5) of 105 amino acid residues”, in assay [1], the “antalgic effect (reversal of mechanical threshold)” value is reported as “did not show significant antalgic effect”. Besides, the “effect on prolonged nerve injury-induced mechanical hypersensitivity of TAFA-4 gene deleted mice” value in assay [2] (intrathecal injection (Delfini et al., 2013)) is given as “reversed”. In addition, the “effect on mechanical hypersensitivity” value in assay [2] (male and female mice, intrathecal and subcutaneous administration (WO2014180853)) was “reverses inflammatory, postoperative and nerve injury-induced mechanical hypersensitivity”. For the same substance, in assay [3], the “effect on nerve injury-induced neuronal sensitization” value was “can reverse nerve injury-induced neuronal sensitization of the spinal lamina II interneurons”.
